Measured values as given in US10618918B2, “Substituted boronic acids as antimicrobials” (priority 2015, dated 2020).
Where two headings read alike, the source gives them in different places.

Key:
[1] = molecular target: purified class A, C and D enzymes (β-lactamases) (Klebsiella pneumoniae, UniProt Q6XEC0); test: biochemical; assay type: biochemical; conditions: purified OXA-48; nitrocefin (NCF) as reporter substrate
[2] = molecular target: purified class A, C and D enzymes (β-lactamases) (Klebsiella pneumoniae, UniProt Q9F663); test: biochemical; assay type: biochemical; conditions: purified KPC-2; nitrocefin (NCF) as reporter substrate
[3] = molecular target: T1, purified class A, C and D enzymes (β-lactamases) (Pseudomonas aeruginosa, UniProt P24735); test: biochemical; assay type: biochemical
T1 construct: rows headed: Ki (Pa-AmpC, NCF), uM; other: purified Pa-AmpC; nitrocefin (NCF) as reporter substrate
T1 sequence (P24735 whole entry): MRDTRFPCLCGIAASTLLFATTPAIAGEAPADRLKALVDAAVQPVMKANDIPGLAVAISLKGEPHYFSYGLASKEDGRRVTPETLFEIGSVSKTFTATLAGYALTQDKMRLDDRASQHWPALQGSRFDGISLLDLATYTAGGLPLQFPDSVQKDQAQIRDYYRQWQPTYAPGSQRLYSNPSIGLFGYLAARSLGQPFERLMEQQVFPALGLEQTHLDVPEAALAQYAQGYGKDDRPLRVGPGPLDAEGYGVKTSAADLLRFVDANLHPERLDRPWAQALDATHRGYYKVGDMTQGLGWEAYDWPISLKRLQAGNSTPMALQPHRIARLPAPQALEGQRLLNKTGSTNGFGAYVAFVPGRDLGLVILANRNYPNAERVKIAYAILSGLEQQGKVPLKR

[4] = molecular target: purified class A, C and D enzymes (β-lactamases) (Escherichia coli, UniProt Q9L5C7); test: biochemical; assay type: biochemical; conditions: purified CTX-M-14; nitrocefin (NCF) as reporter substrate
Sequence of purified class A, C and D enzymes (β-lactamases) (Escherichia coli, UniProt Q9L5C7) (Q9L5C7 entry or part of it): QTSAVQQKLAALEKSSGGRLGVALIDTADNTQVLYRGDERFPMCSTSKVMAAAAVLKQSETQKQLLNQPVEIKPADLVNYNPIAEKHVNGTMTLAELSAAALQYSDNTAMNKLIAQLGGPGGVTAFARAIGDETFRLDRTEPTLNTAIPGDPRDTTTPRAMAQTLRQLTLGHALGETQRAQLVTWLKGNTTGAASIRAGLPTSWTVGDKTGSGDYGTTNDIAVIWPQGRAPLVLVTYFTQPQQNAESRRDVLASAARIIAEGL

[5] = molecular target: purified class A, C and D enzymes (β-lactamases) (Enterobacter cloacae, UniProt P05364); test: biochemical; assay type: biochemical
Sequence of purified class A, C and D enzymes (β-lactamases) (Enterobacter cloacae, UniProt P05364) (P05364 21-381): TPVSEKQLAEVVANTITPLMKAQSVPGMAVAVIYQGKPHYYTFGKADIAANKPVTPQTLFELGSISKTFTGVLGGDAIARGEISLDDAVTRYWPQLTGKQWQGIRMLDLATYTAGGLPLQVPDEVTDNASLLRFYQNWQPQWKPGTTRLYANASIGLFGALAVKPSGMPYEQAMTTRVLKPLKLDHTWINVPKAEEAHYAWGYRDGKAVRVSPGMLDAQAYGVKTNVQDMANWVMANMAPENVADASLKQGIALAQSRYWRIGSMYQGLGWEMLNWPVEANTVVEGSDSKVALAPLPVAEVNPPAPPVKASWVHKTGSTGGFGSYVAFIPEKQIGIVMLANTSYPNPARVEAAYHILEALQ

[6] = molecular target: T2, purified class A, C and D enzymes (β-lactamases) (Acinetobacter baumannii, UniProt Q9L4P2); test: biochemical; assay type: biochemical; conditions: purified OXA-23; nitrocefin (NCF) as reporter substrate
T2 construct: rows headed: Ki (OXA-23, NCF), uM; other: purified OXA-23; nitrocefin (NCF) as reporter substrate
T2 sequence (Q9L4P2 whole entry): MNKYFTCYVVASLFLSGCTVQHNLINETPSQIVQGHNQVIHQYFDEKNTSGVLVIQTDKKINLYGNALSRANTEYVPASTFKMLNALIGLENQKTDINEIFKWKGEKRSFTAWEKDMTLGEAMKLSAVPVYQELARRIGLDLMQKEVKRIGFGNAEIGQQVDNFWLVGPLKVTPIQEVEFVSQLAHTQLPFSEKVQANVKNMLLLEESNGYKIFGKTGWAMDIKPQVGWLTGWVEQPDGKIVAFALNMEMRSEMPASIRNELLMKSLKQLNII

KP1086 OXA-48 = test: Biapenem potentiation (MPC@1), strain KP1086 OXA-48; assay type: cell-based; conditions: minimum BLI concentration inhibiting growth with biapenem 1 μg/mL; tested up to 40 μg/mL
Description: (§1) Biapenem was present in the test medium at 1 μg/mL. […] Table 3 summarizes the BLI potency of biapenem potentiation (MPC@1) for two strains overexpressing class A (KPC) and class D (OXA-48) carbapenemases. Biapenem MIC for each strain is also shown.

KP1005 CTX-M-14 = test: Tigemonam potentiation (MPC@4), strain KP1005 CTX-M-14; conditions: minimum BLI concentration inhibiting growth with tigemonam 4 μg/mL; tested up to 40 μg/mL
KP1004 KPC-2 [7] = test: Aztreonam potentiation (MPC@4), strain KP1004 KPC-2; conditions: minimum BLI concentration inhibiting growth with aztreonam 4 μg/mL; tested up to 40 μg/mL
KP1004 KPC-2 [8] = test: Biapenem potentiation (MPC@1), strain KP1004 KPC-2; assay type: cell-based; conditions: minimum BLI concentration inhibiting growth with biapenem 1 μg/mL; tested up to 40 μg/mL
Description: as §1

EC1010 CMY-6 = test: Aztreonam potentiation (MPC@4), strain EC1010 CMY-6; conditions: minimum BLI concentration inhibiting growth with aztreonam 4 μg/mL; tested up to 40 μg/mL
AB1054 OXA-23 = test: Meropenem potentiation (MPC@8), strain AB1054 OXA-23; assay type: cell-based, Acinetobacter baumannii; conditions: minimum BLI concentration inhibiting growth with meropenem 8 μg/mL; tested up to 20 μg/mL
ec302 TEM-10 = test: Aztreonam potentiation (MPC@4), strain ec302 TEM-10; conditions: minimum BLI concentration inhibiting growth with aztreonam 4 μg/mL; tested up to 40 μg/mL
ec308 SHV-5 = test: Aztreonam potentiation (MPC@4), strain ec308 SHV-5; conditions: minimum BLI concentration inhibiting growth with aztreonam 4 μg/mL; tested up to 40 μg/mL
KP1009 CTX-M-15 = test: Aztreonam potentiation (MPC@4), strain KP1009 CTX-M-15; conditions: minimum BLI concentration inhibiting growth with aztreonam 4 μg/mL; tested up to 40 μg/mL
KP1010 SHV-12 = test: Aztreonam potentiation (MPC@4), strain KP1010 SHV-12; conditions: minimum BLI concentration inhibiting growth with aztreonam 4 μg/mL; tested up to 40 μg/mL
AB1053 OXA-72 = test: Meropenem potentiation (MPC@8), strain AB1053 OXA-72; assay type: cell-based, Acinetobacter baumannii; conditions: minimum BLI concentration inhibiting growth with meropenem 8 μg/mL; tested up to 20 μg/mL
ECL1002 = test: Aztreonam potentiation (MPC@4), strain ECL1002; conditions: minimum BLI concentration inhibiting growth with aztreonam 4 μg/mL; tested up to 40 μg/mL

Compound	Ki (OXA-48, NCF), uM [1]	Ki (KPC-2, NCF), uM [2]	Ki [3] [nM]	Ki (CTX-M-14, NCF), uM [4]	Ki (P99, NCF), uM [5]	Ki [6] [nM]	BPM MPC1 OXA-48 KP1086 (KP1086 OXA-48)	TIG MPC4 CTX-M-14 KP1005 (KP1005 CTX-M-14)	AZT MPC4 KPC-2 KP1004 (KP1004 KPC-2 [7])	BPM MPC1 KP1004 KPC-2 (KP1004 KPC-2 [8])	AZT MPC4 CMY-6 EC1010 (EC1010 CMY-6)	MPM MPC8 AB1054 OXA-23 (AB1054 OXA-23)	AZT MPC4 TEM-10 ec302 (ec302 TEM-10)	AZT MPC4 SHV-5 ec308 (ec308 SHV-5)	AZT MPC4 CTX-M-15 KP1009 (KP1009 CTX-M-15)	AZT MPC4 SHV-12 KP1010 (KP1010 SHV-12)	MPM MPC8 AB1053 OXA-72 (AB1053 OXA-72)	AZT MPC4 ECL1002 (ECL1002)	Ki ([3]; purified Pa-AmpC, nitrocefin (NCF) as reporter substrate, read-out: Ki (Pa-AmpC, NCF)) [nM]	Ki (P99, NCF), uM ([5]; purified P99, nitrocefin (NCF) as reporter substrate)
O=C([O-])c1c(OCC2CC2)ccc2c1O[B-](O)(O)CC2.[Na+].[Na+] [Compound 45, Disodium; 8-(cyclopropylmethoxy)-4,4-dihydroxy-5-oxa-4-boranuidabicyclo[4.4.0]deca-1(6),7,9-triene-7-carboxylate]	X (X = Ki ≤ 0.1 μM)	X (X = Ki ≤ 0.1 μM)	< 100	X (X = Ki ≤ 0.1 μM)	X (key: X = Ki ≤ 0.1 μM; Y = 0.1 μM < Ki ≤ 1 μM; Z = Ki > 1 μM)	< 100	X (X = MPC@1 ≤ 5 μg/mL)	Z (Z = MPC@4 > 20 μg/mL)	X (X = MPC@4 ≤ 5 μg/mL)	X (X = MPC@1 ≤ 5 μg/mL)	X (X = MPC@4 ≤ 5 μg/mL)	X (X = MPC@1 ≤ 5 μg/mL)	Y (Y = 5 μg/mL < MPC@4 ≤ 20 μg/mL)	Y (Y = 5 μg/mL < MPC@4 ≤ 20 μg/mL)	Z (Z = MPC@4 > 20 μg/mL)	X (X = MPC@4 ≤ 5 μg/mL)	X (X = MPC@1 ≤ 5 μg/mL)	Y (Y = 5 μg/mL < MPC@4 ≤ 20 μg/mL)		
NC(=O)COc1ccc2c(c1C(=O)O)OB(O)CC2 [Compound 46, 7-(2-Amino-2-oxo-ethoxy)-2-hydroxy-3,4-dihydro-1,2-benzoxaborinine-8-carboxylic acid]	X (X = Ki ≤ 0.1 μM)	X (X = Ki ≤ 0.1 μM)		X (X = Ki ≤ 0.1 μM)		< 100	Y (Y = 5 μg/mL < MPC@1 ≤ 20 μg/mL)	Z (Z = MPC@4 > 20 μg/mL)	X (X = MPC@4 ≤ 5 μg/mL)	X (X = MPC@1 ≤ 5 μg/mL)	X (X = MPC@4 ≤ 5 μg/mL)	Y (Y = 5 μg/mL < MPC@1 ≤ 20 μg/mL)	X (X = MPC@4 ≤ 5 μg/mL)	X (X = MPC@4 ≤ 5 μg/mL)	X (X = MPC@4 ≤ 5 μg/mL)	X (X = MPC@4 ≤ 5 μg/mL)	X (X = MPC@1 ≤ 5 μg/mL)	X (X = MPC@4 ≤ 5 μg/mL)	< 100	X (X = Ki ≤ 0.1 μM)
CN(C)CCOc1ccc2c(c1C(=O)[O-])O[B-](O)(O)CC2.[Na+].[Na+] [Compound 48, Disodium; 8-[2-(dimethylamino)ethoxy]-4,4-dihydroxy-5-oxa-4-boranuidabicyclo[4.4.0]deca-1(6),7,9-triene-7-carboxylate]	X (X = Ki ≤ 0.1 μM)	X (X = Ki ≤ 0.1 μM)	100 to 1000	X (X = Ki ≤ 0.1 μM)	Y (key: X = Ki ≤ 0.1 μM; Y = 0.1 μM < Ki ≤ 1 μM; Z = Ki > 1 μM)	< 100	X (X = MPC@1 ≤ 5 μg/mL)	Z (Z = MPC@4 > 20 μg/mL)	X (X = MPC@4 ≤ 5 μg/mL)	X (X = MPC@1 ≤ 5 μg/mL)	X (X = MPC@4 ≤ 5 μg/mL)	Y (Y = 5 μg/mL < MPC@1 ≤ 20 μg/mL)	Y (Y = 5 μg/mL < MPC@4 ≤ 20 μg/mL)	Y (Y = 5 μg/mL < MPC@4 ≤ 20 μg/mL)	Y (Y = 5 μg/mL < MPC@4 ≤ 20 μg/mL)	X (X = MPC@4 ≤ 5 μg/mL)	X (X = MPC@1 ≤ 5 μg/mL)	Y (Y = 5 μg/mL < MPC@4 ≤ 20 μg/mL)		
O=C([O-])c1c(CO)ccc2c1O[B-](O)(O)CC2.[Na+].[Na+] [Compound 49, Disodium; 4,4-dihydroxy-8-(hydroxymethyl)-5-oxa-4-boranuidabicyclo[4.4.0]deca-1(6),7,9-triene-7-carboxylate]	X (X = Ki ≤ 0.1 μM)	X (X = Ki ≤ 0.1 μM)	< 100	X (X = Ki ≤ 0.1 μM)	X (key: X = Ki ≤ 0.1 μM; Y = 0.1 μM < Ki ≤ 1 μM; Z = Ki > 1 μM)	< 100	X (X = MPC@1 ≤ 5 μg/mL)	X (X = MPC@4 ≤ 5 μg/mL)	X (X = MPC@4 ≤ 5 μg/mL)	X (X = MPC@1 ≤ 5 μg/mL)	X (X = MPC@4 ≤ 5 μg/mL)	Y (Y = 5 μg/mL < MPC@1 ≤ 20 μg/mL)	X (X = MPC@4 ≤ 5 μg/mL)	X (X = MPC@4 ≤ 5 μg/mL)	X (X = MPC@4 ≤ 5 μg/mL)	X (X = MPC@4 ≤ 5 μg/mL)	Y (Y = 5 μg/mL < MPC@1 ≤ 20 μg/mL)	X (X = MPC@4 ≤ 5 μg/mL)		
O=C([O-])c1c(C(F)F)ccc2c1O[B-](O)(O)CC2.[Na+].[Na+] [Compound 50, Disodium; 8-(difluoromethyl)-4,4-dihydroxy-5-oxa-4-boranuidabicyclo[4.4.0]deca-1(6),7,9-triene-7-carboxylate]	X (X = Ki ≤ 0.1 μM)	X (X = Ki ≤ 0.1 μM)	< 100	X (X = Ki ≤ 0.1 μM)	X (key: X = Ki ≤ 0.1 μM; Y = 0.1 μM < Ki ≤ 1 μM; Z = Ki > 1 μM)	< 100	X (X = MPC@1 ≤ 5 μg/mL)	X (X = MPC@4 ≤ 5 μg/mL)	X (X = MPC@4 ≤ 5 μg/mL)	X (X = MPC@1 ≤ 5 μg/mL)	X (X = MPC@4 ≤ 5 μg/mL)	Y (Y = 5 μg/mL < MPC@1 ≤ 20 μg/mL)	X (X = MPC@4 ≤ 5 μg/mL)	X (X = MPC@4 ≤ 5 μg/mL)	X (X = MPC@4 ≤ 5 μg/mL)	X (X = MPC@4 ≤ 5 μg/mL)	Y (Y = 5 μg/mL < MPC@1 ≤ 20 μg/mL)	X (X = MPC@4 ≤ 5 μg/mL)		
